Here are results for 23 molecules from ChEMBL document CHEMBL2086370 (J Med Chem, 2012).

Where only a bound is given, the exact number is not on record here.

The nature of series [1]: Lipophilicity, log D of the compound at pH 7.4 by potentiometric method. In kind it is physicochemical. The note with it: buffer.
Series [2] concerns Brain. As to the kind of experiment: Drug uptake in Harlan Sprague-Dawley rat brain at 3 ug/kg, iv after 10 mins by LC-MS/MS analysis. The settings on record: in vivo, 0.003 mg/kg. The class given is ADME, organism-based.
Series [3] has as its system Brain. As to the kind of experiment: Drug uptake in Harlan Sprague-Dawley rat brain at 3 ug/kg, iv up to 60 mins by LC-MS/MS analysis. The note with it: in vivo, 1 h.
A further series has as its target Mu-type opioid receptor (Homo sapiens, UniProt P35372). Put plainly: Displacement of [3H]diprenorphine from human cloned mu type opioid receptor expressed in CHO cell membranes by scintillation counter. In general terms: Loss of bound radioactivity is the signal in a displacement assay; it reports binding, not function.
The target in series [4] is Delta-type opioid receptor (Homo sapiens, UniProt P41143). Put plainly: biochemical.
Description: Displacement of [3H]diprenorphine from human cloned delta type opioid receptor expressed in CHO cell membranes by scintillation counter
In series [5] the target is Kappa-type opioid receptor (Homo sapiens, UniProt P41145). As to the kind of experiment: biochemical.
Description: Displacement of [3H]diprenorphine from human cloned kappa type opioid receptor expressed in CHO cell membranes by scintillation counter
The next series has as its system Rattus norvegicus. As to the kind of experiment: In vivo receptor occupancy of NOP receptor in po dosed Harlan Sprague-Dawley rat hypothalamus co-administered with unlabeled tracer compound at 3 ug/kg, iv. In kind it is functional.

Sequence of Delta-type opioid receptor (P41143 whole entry): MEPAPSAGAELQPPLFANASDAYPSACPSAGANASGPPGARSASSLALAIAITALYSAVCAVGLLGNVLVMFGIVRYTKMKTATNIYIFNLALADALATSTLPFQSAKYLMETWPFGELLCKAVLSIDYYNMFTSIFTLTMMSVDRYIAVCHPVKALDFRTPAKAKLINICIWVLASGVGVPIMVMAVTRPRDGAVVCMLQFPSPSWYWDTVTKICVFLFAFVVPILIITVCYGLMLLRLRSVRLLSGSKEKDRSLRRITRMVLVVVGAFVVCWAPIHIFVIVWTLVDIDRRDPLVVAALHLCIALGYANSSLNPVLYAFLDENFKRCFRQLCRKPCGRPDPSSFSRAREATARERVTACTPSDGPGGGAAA
Sequence of Kappa-type opioid receptor (P41145 whole entry): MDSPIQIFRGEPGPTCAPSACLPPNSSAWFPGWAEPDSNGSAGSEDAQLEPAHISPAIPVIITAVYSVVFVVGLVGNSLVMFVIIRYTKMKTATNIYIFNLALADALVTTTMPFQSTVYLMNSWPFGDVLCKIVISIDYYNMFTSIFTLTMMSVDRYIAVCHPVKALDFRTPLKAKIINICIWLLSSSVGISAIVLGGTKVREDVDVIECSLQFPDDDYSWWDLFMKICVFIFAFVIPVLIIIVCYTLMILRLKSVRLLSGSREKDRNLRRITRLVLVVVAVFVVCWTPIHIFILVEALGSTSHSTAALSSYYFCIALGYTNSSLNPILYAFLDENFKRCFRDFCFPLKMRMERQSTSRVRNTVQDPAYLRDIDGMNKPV
Sequence of Mu-type opioid receptor (P35372 whole entry): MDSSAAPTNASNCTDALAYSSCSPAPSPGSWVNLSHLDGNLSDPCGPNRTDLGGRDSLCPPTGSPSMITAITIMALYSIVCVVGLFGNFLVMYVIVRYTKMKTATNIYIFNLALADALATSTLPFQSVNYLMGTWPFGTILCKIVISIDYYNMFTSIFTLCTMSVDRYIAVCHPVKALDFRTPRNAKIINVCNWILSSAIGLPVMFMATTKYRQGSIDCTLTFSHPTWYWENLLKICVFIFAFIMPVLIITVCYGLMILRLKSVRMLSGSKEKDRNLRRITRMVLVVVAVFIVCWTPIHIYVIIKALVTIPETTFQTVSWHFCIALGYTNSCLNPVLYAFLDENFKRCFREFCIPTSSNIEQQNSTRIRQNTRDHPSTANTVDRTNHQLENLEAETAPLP

As usually defined, the logD is lipophilicity at a set pH, counting ionised and neutral species. With `CC(C)N(C)C(=O)[C@@H](Cc1ccccc1F)CN1CCC2(CC1)OCCc1cc(F)sc12`, the logD in series [1] (read-out: logD) turned out to be 4.47. For the same molecule, in the series with Brain [2], the SUV is recorded as 143%.
Regarding `O=C1NCN(c2ccccc2)C12CCN([C@H]1CC[C@@H]3CCCc4cccc1c43)CC2`, the pH-dependent lipophilicity (logD) in series [1] (read-out: logD) is 3.46.
In the series with Brain [3], `CNC(=O)Cn1c(=O)n(C2CCN([C@@H]3Cc4cccc5cccc3c45)CC2)c2ccccc21` registered an SUV of 0%.
For the molecule `COC(=O)CN1CN(c2ccccc2)C2(CCN(Cc3cccc4ccccc34)CC2)C1=O`, the logD in series [1] (read-out: logD) stood at 3.85. For the same molecule, the SUV in the series on Brain [3] is 6%.
As usually defined, the Ki is the dissociation constant of the complex between target and ligand, obtained from inhibition or displacement. A higher Ki goes with a looser hold on the target. Take `CN(C)C(=O)C(Cc1cscn1)CN1CCC2(CC1)OCc1ccc(F)cc12` (configuration not stated): in series [1] (read-out: logD), the logD worked out at 2.02. Besides, the inhibition constant (Ki) (on Mu-type opioid receptor; in series [4]; in series [5]) was more than 400 nM each time. The SUV in the series on Brain [3] stood at 25%.
On to `CNC(=O)C(Cc1ccccc1Cl)CN1CCC2(CC1)OCCc1cc(Cl)sc12` (configuration not stated), for which the log distribution coefficient (logD) in series [1] (read-out: logD) stood at 3.77. Further, in the series with Brain [3], the SUV turned out to be 87%.
The matching figures for `NC(=O)C(Cc1ccccc1Cl)CN1CCC2(CC1)OCCc1cc(Cl)sc12` (configuration not stated): 4.58 and 145%.
Take `CN(C)C(=O)[C@@H](Cc1ccccc1F)CN1CCC2(CC1)OCCc1cc(F)sc12.O=C(O)C(O)C(O)C(=O)O`: the logD in series [1] (read-out: logD) is 3.89. This molecule displayed an SUV in the series with Brain [2] of 154%. The Ki (on Mu-type opioid receptor; in series [4]; in series [5]) was more than 400 nM each time.
The term ED50 denotes the dose that gives a 50% effect, or the effect in half of the subjects. Consider `Cc1cccc2c1CC[C@H](CN1CCC(c3c(Cl)cccc3Cl)CC1)C[C@@H]2O`, for which the logD in series [1] (read-out: logD) was 3.56. Also, the ED50 in the series with Rattus norvegicus came out at 6.9 mg/kg. Besides, the Ki (at Mu-type opioid receptor; in series [4]; in series [5]) was more than 400 nM throughout. Also, in the series on Brain [3], the SUV came out at 130%.
As to `CN(C)C(=O)C(CN1CCC2(CC1)OCCc1ccsc12)Cn1cccn1` (racemic), the Ki (on Mu-type opioid receptor; in series [4]; in series [5]) was more than 400 nM throughout.
With `CN(C)C(=O)C(Cc1ccccc1Cl)CN1CCC2(CC1)OCCc1ccsc12` (racemic), the inhibition constant (Ki) (on Mu-type opioid receptor; in series [4]; in series [5]) was more than 400 nM throughout.
Consider `CN(C)C(=O)C(Cc1ccccc1F)CN1CCC2(CC1)OCCc1ccsc12` (racemic), for which the inhibition constant Ki (on Mu-type opioid receptor; in series [4]; in series [5]) was more than 400 nM each time.
For `CN(C)C(=O)C(Cc1c(F)cccc1F)CN1CCC2(CC1)OCCc1ccsc12` (racemic), the Ki (on Mu-type opioid receptor; in series [4]; in series [5]) was more than 400 nM in each case.
`CN(C)C(=O)C(CN1CCC2(CC1)OCCc1cc(F)sc12)Cn1cccn1.O=C(O)C(O)C(O)C(=O)O` (single isomer, unassigned; (+)): in series [1] (read-out: logD), the pH-dependent lipophilicity (logD) worked out at 2.84. The molecule also returned an SUV in the series with Brain [3] of 65%.
For the molecule `CN(C)C(=O)C(Cc1ccccc1F)CN1CCC2(CC1)OCCc1cc(Cl)sc12.O=C(O)C(O)C(O)C(=O)O` (single isomer, unassigned; (+)), the logD in series [1] (read-out: logD) worked out at 4.27. Moreover, the Ki (on Mu-type opioid receptor; in series [4]; in series [5]) was more than 400 nM in each case. The molecule also registered an SUV in the series on Brain [3] of 88%.
Turning to `CN(C)C(=O)C(Cc1ccccc1Cl)CN1CCC2(CC1)OCCc1cc(F)sc12` (single isomer, unassigned; (+)), the logD in series [1] (read-out: logD) was 4.38. This molecule gave an SUV in the series on Brain [2] of 208%. In addition, the Ki (at Mu-type opioid receptor; in series [4]; in series [5]) was more than 400 nM throughout.
Turning to `CN(C)C(=O)C(CN1CCC2(CC1)OCCc1ccsc12)Cn1cccn1.O=C(O)C(O)C(O)C(=O)O` (single isomer, unassigned; (-)), in series [1] (read-out: logD), the pH-dependent lipophilicity (logD) came to 2.03. Also, the SUV in the series on Brain [3] amounted to 15%.
For the molecule `CN(C)C(=O)C(Cc1ccccc1Cl)CN1CCC2(CC1)OCCc1cc(Cl)sc12.O=C(O)C(O)C(O)C(=O)O` (single isomer, unassigned; (-)), in series [1] (read-out: logD), the logD amounted to 4.61. Also, the inhibitory constant (Ki) (on Mu-type opioid receptor; in series [4]; in series [5]) was more than 400 nM each time. In the series on Brain [3], this molecule had an SUV of 75%.
As for `CNC(=O)C(Cc1ccccc1F)CN1CCC2(CC1)OCCc1cc(Cl)sc12` (single isomer, unassigned; (-)), the logD in series [1] (read-out: logD) stood at 4.19. Moreover, the SUV in the series on Brain [3] turned out to be 46%.
Regarding `CNC(=O)C(Cc1ccccc1Cl)CN1CCC2(CC1)OCCc1cc(F)sc12` (single isomer, unassigned; (-)), in series [1] (read-out: logD), the logD is 3.9. In the series on Brain [2], the SUV stood at 154%.
As for `CN(C(=O)C(Cc1ccccc1F)CN1CCC2(CC1)OCCc1cc(F)sc12)C1CC1` (single isomer, unassigned; (-)), the logD in series [1] (read-out: logD) was found to be 4.77. In the series with Brain [3], this molecule had an SUV of 82%.
The matching figures for `CN(C(=O)C(Cc1ccccc1Cl)CN1CCC2(CC1)OCCc1cc(F)sc12)C1CC1` (single isomer, unassigned; (-)): 5.52 and 72%.
Molecule `CNC(=O)[C@@H](Cc1ccccc1F)CN1CCC2(CC1)OCCc1cc(F)sc12` [NOP-1A] gave a logD in series [1] of 3.5. For the same molecule, the SUV in the series on Brain [2] is on record as 124%.
